# Patent EP2992880A1, “Use of heme oxygenase 1 inducers and cannabinoid 2 receptor or delta-opioid receptor agonists in inflammatory pain” (Fundació Institut de Recerca de l'Hospital de la Santa Creu …, priority 2014, dated 2016)
# How the values were obtained:
# Assay type in all cases: in vivo, male C57BL/6 mice
# [1] = system: CFA-injected mice; test: von Frey filaments test (mechanical allodynia) in CFA-induced chronic inflammatory pain; details: for Mechanical allodynia von Frey filaments strength / Mechanical allodynia, Experimental results (%) (maximal possible effect): ipsilateral paw; for Mechanical allodynia von Frey filaments strength: mean ± SEM, n=6; for reversal of the antiallodynic (antinociceptive) effects produced by 300 µg of JWH-015 / reversal of the antiallodynic effects produced by 150 µg of DPDPE: subplantar coadministration; for Mechanical allodynia, Experimental results (%) (maximal possible effect): CoPP 10 mg/kg intraperitoneal; for reversal of the antiallodynic effects produced by 150 µg of DPDPE: P < 0.001
# Experimental: (§1) The experiments were performed in male C57BL/6 mice acquired from Harlan Laboratories (Barcelona, Spain). All mice weighing 21 to 25 g were housed under 12-h/12-h light/ dark conditions in a room with controlled temperature (22° C) and humidity (66%). Animals had free access to food and water and were used after a minimum of 7 days acclimatization to the housing conditions. All experiments were performed according with the Guide for the Care and Use of Laboratory Animals as adopted and promulgated by the U.S. National Institutes of Health and approved by the local Committee of Animal Use and Care of the Autonomous University of Barcelona. All efforts were made to minimize animal suffering and to reduce the number of animals used.
# (§2) Chronic inflammatory pain was induced by the subplantar injection of 30 µl of CFA (Sigma) into the right hind paw under brief anesthetic conditions with isoflurane according to previous works (Leánez et al., Eur J Pharmacol, 2009, 602:41-49; Hervera et al., Naunyn Schmiedebergs Arch Pharmacol, 2009, 380:345-352). All experiments were performed at 10 days after CFA injection. At this time point, all of these animals developed a local inflammatory reaction, allodynia to mechanical stimuli and hyperalgesia to noxious thermal stimuli, as previously reported (Negrete et al., PLoS One, 2011, 6:e26688). The development of mechanical allodynia and thermal hyperalgesia was evaluated by using the von Frey filaments and plantar tests, respectively. All animals were tested in each paradigm before and at 10 days after CFA-injection.
# Mechanical allodynia was quantified by measuring the hind paw withdrawal response to von Frey filament stimulation. In brief, animals were placed in methacrylate cylinders (20 cm high, 9 cm diameter; Servei Estació, Barcelona, Spain) with a wire grid bottom through which the von Frey filaments (North Coast Medical, Inc., San Jose, CA) with a bending force in the range of 0.008-3.5 g were applied by using a modified version of the up-down paradigm, as previously reported by Chaplan et al. (J Neurosci Methods, 1994, 53:55-63). The filament of 0.4 g was used first and the 3.0 g filament was used as a cut-off. Then, the strength of the next filament was decreased or increased according to the response. The threshold of response was calculated from the sequence of filament strength used during the up-down procedure by using an Excel program (Microsoft Iberia SRL, Barcelona, Spain) that includes curve fitting of the data. Clear paw withdrawal, shaking, or licking of the paw was considered as a nociceptive-like response. Both ipsilateral and contralateral hind paws were tested. Animals were allowed to habituate for 1 h before testing in order to allow an appropriate behavioral immobility.
# In a first set of experiments, we assessed the expression of inflammatory pain induced by the subplantar administration of CFA as previously used (Leánez et al., Eur J Pharmacol, 2009, 602:41-49). After the habituation period, baseline responses were established in the following sequence: von Frey filaments and plantar test. After baseline measurements, inflammatory pain was induced and animals were again tested in each paradigm at day 10 after CFA injection by using the same sequence as for baseline responses. The contralateral paws were used as controls (n = 6 animals per group).
# In a second set of experiments, we evaluated the mechanical antiallodynic and thermal antihyperalgesic effects of the subplantar administration of different doses of a specific DOR (DPDPE) or CB2R (JWH-015) agonist and their respective vehicles in the contralateral and ipsilateral paw of CFA-injected animals (n = 6 animals per group). […]
# [2] = system: CFA-injected mice; test: plantar test (thermal hyperalgesia) in CFA-induced chronic inflammatory pain; details: for Thermal hyperalgesia Withdrawal latency: mean ± SEM, n=6; for reversal of the antihyperalgesic (antinociceptive) effects produced by 300 µg of JWH-015 / reversal of the antihyperalgesic effects produced by 150 µg of DPDPE: subplantar coadministration; for reversal of the antihyperalgesic effects produced by 150 µg of DPDPE: P < 0.001
# Experimental: as §1, §2
# Thermal hyperalgesia was assessed as previously reported by Hargreaves et al. (Pain, 1988, 32:77-88). Paw withdrawal latency in response to radiant heat was measured using the plantar test apparatus (Ugo Basile, Varese, Italy). Briefly, mice were placed in methacrylate cylinders (20 cm high x 9 cm diameter) positioned on a glass surface. The heat source was positioned under the plantar surface of the hind paw and activated with a light beam intensity, chosen in preliminary studies to give baseline latencies from 8 to 10 s in control mice. A cut-off time of 12 s was used to prevent tissue damage in absence of response. The mean paw withdrawal latencies from the ipsilateral and contralateral hind paws were determined from the average of three separate trials, taken at 5 min intervals to prevent thermal sensitization and behavioral disturbances. Animals were habituated to the environment for 1 h before the experiment to become quiet and to allow testing. […]
# In another set of experiments, we evaluated the mechanical antiallodynic and thermal antihyperalgesic effects produced by the subplantar administration of 290 µg of SnPP alone or combined with the subplantar administration of a high dose of DPDPE (150 µg) or JWH-015 (300 µg) in the contralateral and ipsilateral paw of CFA-injected animals (n = 6 animals per group).
# The reversibility of the antinociceptive effects produced by the subplantar administration of DPDPE (150 µg) or JWH-015 (300 µg), as doses that produce the maximal antiallodynic and antihyperalgesic effects after peripheral inflammation, by their subplantar coadministration with specific (naltrindole; 50 µg; AM630; 60 µg) and an unspecific peripheral opioid antagonist (naloxone methiodide, NX-ME; 50 µg) or a cannabinoid 1 receptor (CB1R) antagonist (AM251; 150 µg) (Hervera et al., J Pharmacol Exp Ther, 2010, 334: 887-896; Hervera et al., Mol Pain, 2011, 7:25) was also evaluated (n = 6 animals per group). The doses of all tested opioid and cannabinoid receptor antagonists were selected according to our previous data in animals with chronic pain (Hervera et al., Naunyn Schmiedebergs Arch Pharmacol, 2009, 380:345-352; Hervera et al., Psychopharmacology, 2013, 228:463-477; Negrete et al., PLoS One, 2011, 6:e26688).
# CoPP and SnPP were dissolved in DMSO (1 % solution in saline). JWH-015, AM630, AM251 were dissolved in DMSO (50 % solution in saline). […]
# [3] = system: CFA-injected mice; test: as above
# Experimental: as §1
# Chronic inflammatory pain was induced by the subplantar injection of 30 µl of CFA (Sigma) into the right hind paw under brief anesthetic conditions with isoflurane according to previous works (Leánez et al., Eur J Pharmacol, 2009, 602:41-49; Hervera et al., Naunyn Schmiedebergs Arch Pharmacol, 2009, 380:345-352). All experiments were performed at 10 days after CFA injection. […] The development of mechanical allodynia and thermal hyperalgesia was evaluated by using the von Frey filaments and plantar tests, respectively. […]
# Thermal hyperalgesia was assessed as previously reported by Hargreaves et al. (Pain, 1988, 32:77-88). Paw withdrawal latency in response to radiant heat was measured using the plantar test apparatus (Ugo Basile, Varese, Italy). […] The mean paw withdrawal latencies from the ipsilateral and contralateral hind paws were determined from the average of three separate trials, taken at 5 min intervals to prevent thermal sensitization and behavioral disturbances. […]
# In a first set of experiments, we assessed the expression of inflammatory pain induced by the subplantar administration of CFA as previously used (Leánez et al., Eur J Pharmacol, 2009, 602:41-49). […]
# [4] = Table 7, CB2R agonist, subplantar JWH-015 300 µg, AM630 60 µg, AM251 150 µg, vehicle+vehicle 1.4 ± 0.1
# [5] = Table 7, CB2R agonist, ipsilateral paw, subplantar JWH-015 300 µg, AM630 60 µg, AM251 150 µg, vehicle+vehicle 3.8 ± 0.3
# [6] = Table 7, DOR agonist, subplantar DPDPE 150 µg, naltrindole 50 µg, NX-ME 50 µg, vehicle+vehicle 1.3 ± 0.1
# [7] = Table 7, DOR agonist, ipsilateral paw, subplantar DPDPE 150 µg, naltrindole 50 µg, NX-ME 50 µg, vehicle+vehicle 3.4 ± 0.5
compound,measurement,setting,value
"Cc1c(C(=O)NN2CCCCC2)nn(-c2ccc(Cl)cc2Cl)c1-c1ccc(I)cc1 [AM251, N-(piperidin-1-yl)-5-(4-iodophenyl)-1-(2,4-dichlorophenyl)-4-methyl-1 H-pyrazole-3-carboxamide]",Mechanical allodynia von Frey filaments strength,[1]; [4],1.4 ± 0.1 g
same,reversal of the antiallodynic (antinociceptive) effects produced by 300 µg of JWH-015,"[1]; AM630 60 µg, AM251 150 µg",unable to revert
same,Thermal hyperalgesia Withdrawal latency,[2]; [5],3.6 ± 0.4 s
same,reversal of the antihyperalgesic (antinociceptive) effects produced by 300 µg of JWH-015,"[2]; AM630 60 µg, AM251 150 µg",unable to revert
COc1ccc(C(=O)c2c(C)n(CCN3CCOCC3)c3cc(I)ccc23)cc1 [AM630],Mechanical allodynia von Frey filaments strength,[1]; [4],1.3 ± 0.1 g
same,reversal of the antiallodynic (antinociceptive) effects produced by 300 µg of JWH-015,"[1]; AM630 60 µg, AM251 150 µg",completely reversed
same,Thermal hyperalgesia Withdrawal latency,[2]; [5],3.7 ± 0.2 s
same,reversal of the antihyperalgesic (antinociceptive) effects produced by 300 µg of JWH-015,"[2]; AM630 60 µg, AM251 150 µg",completely reversed
"CCCn1c(C)c(C(=O)c2cccc3ccccc23)c2ccccc21 [JWH-015, (2-Methyl-1-propyl-1H-indol-3-yl)-1-naphthalenylmethanone]","Mechanical allodynia, Experimental results (%) (maximal possible effect)","[1]; Table 6, JWH-015 30 µg subplantar, vehicle 4.1",7.5%
same,Mechanical allodynia von Frey filaments strength,[1]; [4],2.5 ± 0.2 g
same,"Thermal hyperalgesia, Experimental results (%) (maximal possible effect)","[2]; Table 6, ipsilateral paw, CoPP 10 mg/kg intraperitoneal, JWH-015 30 µg subplantar, vehicle 4.9",7.4%
same,Thermal hyperalgesia Withdrawal latency,[2]; [5],9.2 ± 0.2 s
"C=CC[N+]1(C)CC[C@]23c4c5ccc(O)c4O[C@H]2C(=O)CC[C@@]3(O)[C@H]1C5 (some centres unmarked) [NX-ME, naloxone methiodide]",Mechanical allodynia von Frey filaments strength,[1]; [6],1.2 ± 0.1 g
same,reversal of the antiallodynic effects produced by 150 µg of DPDPE,"[1]; naltrindole 50 µg, NX-ME 50 µg",completely reversed
same,Thermal hyperalgesia Withdrawal latency,[2]; [7],3.6 ± 0.5 s
same,reversal of the antihyperalgesic effects produced by 150 µg of DPDPE,"[2]; naltrindole 50 µg, NX-ME 50 µg",completely reversed
"Oc1ccc2c3c1O[C@H]1c4[nH]c5ccccc5c4C[C@@]4(O)[C@@H](C2)N(CC2CC2)CC[C@]314 [Naltrindole, naltrindole]",Mechanical allodynia von Frey filaments strength,[1]; [6],1.3 ± 0.1 g
same,reversal of the antiallodynic effects produced by 150 µg of DPDPE,"[1]; naltrindole 50 µg, NX-ME 50 µg",completely reversed
same,Thermal hyperalgesia Withdrawal latency,[2]; [7],3.4 ± 0.6 s
same,reversal of the antihyperalgesic effects produced by 150 µg of DPDPE,"[2]; naltrindole 50 µg, NX-ME 50 µg",completely reversed
"C=Cc1c(C)c2cc3[nH]c(cc4nc(cc5nc(cc1[nH]2)C(C)=C5CCC(=O)[O-])C(CCC(=O)[O-])=C4C)c(C)c3C=C.[Cl-].[Cl-].[Sn+4] [SnPP, tin (IV) protoporphyrin IX dichloride]",effect of SnPP coadministration on the local antiallodynic effects of DPDPE,"[1]; SnPP 290 µg + DPDPE 150 µg subplantar, P < 0.001 (Fig. 5A)",significantly decreased
same,effect of SnPP coadministration on the local antiallodynic effects of JWH-015,"[1]; SnPP 290 µg + JWH-015 300 µg subplantar, P < 0.001 (Fig. 5A)",significantly decreased
same,mechanical allodynia induced by peripheral inflammation,[1]; SnPP alone 290 µg subplantar (Fig. 5A),did not alter
same,effect of SnPP coadministration on the local antihyperalgesic effects of DPDPE,"[2]; SnPP 290 µg + DPDPE 150 µg subplantar, P < 0.001 (Fig. 5B)",significantly decreased
same,effect of SnPP coadministration on the local antihyperalgesic effects of JWH-015,"[2]; SnPP 290 µg + JWH-015 300 µg subplantar, P < 0.001 (Fig. 5B)",significantly decreased
same,thermal hyperalgesia induced by peripheral inflammation,[2]; SnPP alone 290 µg subplantar (Fig. 5B),did not alter
"[2-D-penicillamine,5-D-penicillamine]-enkephalin [DPDPE]","Thermal hyperalgesia, Experimental results (%) (maximal possible effect)","[3]; Table 5, ipsilateral paw, CoPP 10 mg/kg intraperitoneal, DPDPE 50 µg subplantar, vehicle 4.0",16.0%
same,Thermal hyperalgesia Withdrawal latency,"[3]; Table 7, DOR agonist, ipsilateral paw, subplantar DPDPE 150 µg, naltrindole 50 µg, NX-ME 50 µg, vehicle+vehicle 3.4 ± 0.5, mean ± SEM, n=6",9.2 ± 0.7 s
same,thermal hyperalgesia induced by peripheral inflammation,"[3]; subplantar administration, DPDPE 50-150 µg, JWH-015 30-300 µg (Fig. 1B, 2B)",dose-dependently inhibited
same,"Mechanical allodynia, Experimental results (%) (maximal possible effect)","[1]; Table 5, DPDPE 50 µg subplantar, vehicle 5.8",11.8%
same,Mechanical allodynia von Frey filaments strength,[1]; [6],2.4 ± 0.1 g
same,mechanical allodynia induced by peripheral inflammation,"[1]; subplantar administration, DPDPE 50-150 µg, JWH-015 30-300 µg (Fig. 1A, 2A)",dose-dependently inhibited
